Reference: ChEMBL document CHEMBL4359927, “Structural optimization and neurotrophic activity evaluation of neurotrophic gentiside derivatives” (Bioorg Med Chem Lett, 2019)
Active and inactive are the calls of the source. The rule behind the calls is not given here.

Experiments:
PC-12 [1] = assay: Induction of neurite outgrowth in rat PC12 cells assessed as increase in neurite length at 10 uM incubated for 48 hrs by phase contrast microscopy; assay type: functional, cell-based
PC-12 [2] = assay: Induction of neurite outgrowth in rat PC12 cells assessed as increase in neurite length at 30 uM incubated for 48 hrs by phase contrast microscopy; assay type: functional, cell-based
PC-12 [3] = assay: Induction of neurite outgrowth in rat PC12 cells assessed as increase in neurite length at 1 uM incubated for 48 hrs by phase contrast microscopy; assay type: functional, cell-based
PC-12 [4] = assay: Cytotoxicity against rat PC12 cells assessed as reduction in cell viability at >5 uM incubated for 48 hrs; assay type: cell-based; settings: pc-12, 48 h
PC-12 [5] = assay: Cytotoxicity against rat PC12 cells assessed as reduction in cell viability at 10 uM incubated for 48 hrs; assay type: cell-based; settings: pc-12, 48 h
PC-12 [6] = assay: Induction of neurite outgrowth in rat PC12 cells assessed as increase in neurite length incubated for 48 hrs by phase contrast microscopy; assay type: functional, cell-based

Compound	Activity (PC-12 [2])	Activity (PC-12 [3])	further results
O=C(Oc1ccc(-c2ccccc2)cc1)c1cccc(O)c1O	–	–	Activity (PC-12 [1]): inactive
CCCCCc1ccc(-c2ccc(COC(=O)c3cccc(O)c3O)cc2)cc1	–	–	Activity (PC-12 [1]): inactive
O=C(OCc1ccccc1)c1cccc(O)c1O	Active	–	–
CCCCCCC/C=C/c1ccc(COC(=O)c2cccc(O)c2O)cc1	–	Active	–
O=C(OCc1ccc(-c2ccccc2)cc1)c1cccc(O)c1O	–	–	Activity (PC-12 [1]): inactive
O=C(OCCCCCCCCCCc1ccccc1)c1cccc(O)c1O	inactive	–	–
CCCCCCCCCCCCCCOC(=O)c1cccc(O)c1O	–	Active	Activity (PC-12 [4]): Toxic; Activity (PC-12 [5]): Toxic
O=C(Oc1ccccc1)c1cccc(O)c1O	Active	–	–
CCCCCCCC/C=C/c1ccc(COC(=O)c2cccc(O)c2O)cc1	–	Active	–
CCCCCCCCCc1ccc(COC(=O)c2cccc(O)c2O)cc1	–	Active	Activity (PC-12 [6]): Dose-dependent effect; Activity (PC-12 [4]): Toxic; Activity (PC-12 [5]): Toxic
CCCCCCCCCCCCCCOC(=O)c1ccn[nH]1	–	inactive	–
CCCCCCc1ccc(-c2ccc(OC(=O)c3cccc(O)c3O)cc2)cc1	–	–	Activity (PC-12 [1]): inactive
CCCCCCCCCCc1ccc(OC(=O)c2cccc(O)c2O)cc1	–	Active	Activity (PC-12 [6]): Dose-dependent effect; Activity (PC-12 [4]): Toxic; Activity (PC-12 [5]): Toxic
O=C(OCCCc1ccccc1)c1cccc(O)c1O	inactive	–	–
CCCCCCCCCCCCCCOC(=O)c1csc(N)n1	–	inactive	–
O=C(OCCCCc1ccccc1)c1cccc(O)c1O	inactive	–	–
CCCCCCCCCCc1ccc(COC(=O)c2cccc(O)c2O)cc1	–	Active	–
O=C(OCCc1ccccc1)c1cccc(O)c1O	inactive	–	–
CCCCCCCCCCCCCCOC(=O)c1c(O)c(=O)[nH]c2ccccc12	–	Active	Activity (PC-12 [6]): Dose-dependent effect; Activity (PC-12 [4]): Toxic; Activity (PC-12 [5]): Toxic
CCCCCCCCCCCCCCOC(=O)c1cccc2nc[nH]c12	–	inactive	–
